The target of series [1] is T1, hPPARβ (Homo sapiens, UniProt Q03181).
T1 sequence (Q03181 211-441 limits assumed): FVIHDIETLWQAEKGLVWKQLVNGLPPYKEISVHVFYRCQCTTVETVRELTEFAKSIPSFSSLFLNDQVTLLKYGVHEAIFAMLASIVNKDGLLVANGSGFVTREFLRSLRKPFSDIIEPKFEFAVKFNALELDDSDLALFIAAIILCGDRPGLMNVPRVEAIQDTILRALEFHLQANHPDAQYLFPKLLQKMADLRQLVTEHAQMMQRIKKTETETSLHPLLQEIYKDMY
As to the kind of experiment: Test A: transient transfection assay in HepG2 cells, Gal4-PPAR chimeric receptor, luciferase reporter (hPPARβ). The format is cell-based. The note with it: HepG2 cells transfected with hPPARβ chimeric receptor; 24 hours incubation; compound 50 μM to 50 pM; read-out: Hep G2-hβ EC50. On the procedure:
(§1) 1. Test A. Transient Transfections Assay Using the HepG2 Hepatoma Cell Line.
(§2) HepG2 cells were transiently transfected with an expression plasmids encoding hPPARα, hPPARβ or mPPARγ chimeric receptors and a reporter containing the yeast upstream activating sequence (UAS) upstream of the viral E1B promoter controlling a luciferase reporter gene. In addition, the plasmid pRSVβ-gal was used to control for transfection efficiency. HepG2 cells were grown in DMEM supplemented with 10% FBS and 1 μM non-essential amino acid. On the first day, cells were split into 100 mm dishes at 2.5×10^6/dish and incubated overnight at 37C.°/5% CO2. On the second day the cells were transiently transfected with plasmid DNA encoding a chimeric receptor, the luciferase reporter gene; and β-gal. For each 100 mm dish, 15 μg of lucifease reporter (PG5E1b) DNA, 15 μg of Gal4-pPAR chimeric receptor DNA, and 1.5 μg of μ-gal plasmid DNA were mixed with 1.4 ml of opti-MEM in the tube. 28 μl of LipoFectamine-2000 reagent was added to 1.4 ml of opti-MEM in the tube, and incubate for 5 min at RT. The diluted Lipofectamine-2000 reagent was combined with the DNA mixture, and incubate for 20 min at RT. After fresh medium was added to each 100 mm dish of cells, 2.8 ml of Lipofectamine2000-DNA mixture was added dropwise to the 100 mm dish containing 14 ml of medium, and incubate 37° C. overnight. On day three cells were trypsinized off the 100 mm dishes and re-plated on 96 well plates. Cells were plated at 2.5×10^4 cells per well in 150 μl of media and 50 μl of compound diluted by media was added. The concentrations of reference agents and test compound added were in the range from 50 μM to 50 pM. After addition of compounds, the plates were incubated at 37° C. for 24 hours. Subsequently cells were washed once with 100 μl of PBS, lysed, and processed for measuring luciferase and μ-gal activity using Dual-Light luciferase kit from Tropix®, according to the manufacturer's recommendations, on an EG&G Bethold MicroLumat LB96P luminometer. EC50 values were obtained using the GraphPad Prism™ program.
In general terms: In a reporter assay the amount or activity of a reporter protein is the signal.

The target in series [2] is T2, hPPARα (Homo sapiens, UniProt Q07869).
T2 sequence (Q07869 200-468 limits assumed): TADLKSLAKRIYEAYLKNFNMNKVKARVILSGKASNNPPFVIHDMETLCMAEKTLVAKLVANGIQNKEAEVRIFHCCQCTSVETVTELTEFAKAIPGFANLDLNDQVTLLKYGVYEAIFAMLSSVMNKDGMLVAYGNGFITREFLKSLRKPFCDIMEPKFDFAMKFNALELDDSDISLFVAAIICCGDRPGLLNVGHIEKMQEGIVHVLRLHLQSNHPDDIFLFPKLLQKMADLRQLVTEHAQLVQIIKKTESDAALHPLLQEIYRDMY
Briefly: Test A: transient transfection assay in HepG2 cells, Gal4-PPAR chimeric receptor, luciferase reporter (hPPARα). It counts as cell-based. The following applies: HepG2 cells transfected with hPPARα chimeric receptor; 24 hours incubation; compound 50 μM to 50 pM; read-out: Hep G2-hα EC50. The procedure: as §1
as §2, with “program. […] Accordingly, the compounds of the present invention should find considerable therapeutic applications for hypercholesterolemia and hyperlipidemia.” for “program.”

Usually EC50 stands for the concentration needed to bring the measured effect to its halfway point. What is called melting point is the temperature, or range, at which the solid turns liquid.

In the case of `Cc1nc(-c2ccc(C(F)(F)F)cc2)sc1CSc1ccc2c(c1)CCCN2CC(=O)O` [Example 11, {6-[4-methyl-2-(4-trifluoromethyl-phenyl)-thiazol-5-ylmethylsulfanyl]-3,4-dihydro-2H-quinolin-1-yl}-acetic acid], the EC50 in series [1] came out at 0.286 µM; in series [2], 1.93 µM. Turning to `Cc1nc(-c2ccc(C(F)(F)F)cc2)sc1CSc1ccc2oc(C(=O)O)cc2c1` [Example 6, 5-[4-methyl-2-(4-trifluoromethyl-phenyl)-thiazol-5-ylmethylsulfanyl]-benzofuran-2-carboxylic acid], the melting point was 207 to 209 °C. For the same compound, the EC50 in series [2] turned out to be 2.04 µM.

With `Cc1nc(-c2ccc(C(F)(F)F)cc2)sc1COc1ccc2c(CC(=O)O)csc2c1` [Example 23, {6-[4-Methyl-2-(4-trifluoromethyl-phenyl)-thiazol-5-ylmethoxy]-benzo[b]thiophen-3-yl}-acetic acid], the EC50 in series [2] was found to be 0.572 µM. Turning to `Cc1nc(-c2ccc(C(F)(F)F)cc2)sc1CSc1ccc2c(c1)CCC(CC(=O)O)C2=O` (stereo not shown) [Example 7, {6-[4-Methyl-2-(4-trifluoromethylphenyl)thiazol-5-ylmethylsulfanyl]-1-oxo-3,4-dihydro-1H-naphthalen-2-yl}-acetic acid], in series [1], the EC50 was 0.614 µM. `Cc1nc(-c2ccc(C(F)(F)F)cc2)sc1CSc1ccc2c(c1)CCC(C(=O)O)O2` (stereo not shown) [Example 3]: the EC50 in series [1] turned out to be 0.762 µM; in series [2], 0.917 µM.

Consider `Cc1nc(-c2ccc(C(F)(F)F)cc2)sc1CSc1ccc2c(c1)CCN(CC(=O)O)C2` [Example 10, {6-[4-Methyl-2-(4-trifluoromethyl-phenyl)-thiazol-5-ylmethylsulfanyl]-3,4-dihydro-1H-isoquinolin-2-yl}-acetic acid], for which the EC50 in series [1] was 0.111 µM.

With `Cc1nc(-c2ccc(C(F)(F)F)cc2)sc1CSc1ccc2c(c1)CCC(C)(CC(=O)O)O2` (stereo not shown) [Example 8, {2-methyl-6-[4-methyl-2-(4-trifluoromethyl-phenyl)-thiazol-5-ylmethylsulfanyl]-chroman-2-yl}-acetic acid], in series [1], the half-maximal effective concentration (EC50) worked out at 3.47 µM. Regarding `Cc1nc(-c2ccc(C(F)(F)F)cc2)sc1CSc1ccc2c(c1)CCC(CC(=O)O)O2` (stereo not shown) [Example 5], the EC50 in series [1] amounted to 0.0083 µM; in series [2], 3.74 µM. The like results for `Cc1nc(-c2ccc(C(F)(F)F)cc2)sc1CSc1ccc2c(c1)CC(CC(=O)O)O2` (stereo not shown) [Example 4, {5-[4-Methyl-2-(4-trifluoromethyl-phenyl)-thiazol-5-ylmethylsulfanyl]-2,3-dihydro-benzofuran-2-yl}-acetic acid] were, in that order, 1.54 µM and 0.899 µM.

In the case of `Cc1nc(-c2ccc(C(F)(F)F)cc2)sc1CSc1ccc2c(c1)CC(CC(=O)O)C2` (stereo not shown) [Example 2, {5-[4-methyl-2-(4-trifluoromethyl-phenyl)-thiazol-5-ylmethylsulfanyl]-indan-2-yl}-acetic acid], the EC50 in series [1] was found to be 0.267 µM; in series [2], 1.96 µM. On to `COc1cc2c(cc1SCc1sc(-c3ccc(C(F)(F)F)cc3)nc1C)CCC(CC(=O)O)O2` (stereo not shown) [Example 14, 7-methoxy-6-[4-methyl-2-(4-trifluoromethyl-pheny)-thiazol-5-ylmethylsulfanyl]-chroman-2-yl-acetic acid], for which the EC50 in series [1] worked out at 0.019 µM.

`COc1cc2on(CC(=O)O)c(=O)c2cc1SCc1sc(-c2ccc(C(F)(F)F)cc2)nc1C` [Example 22, 6-Methoxy-5-[4-Methyl-2-(4-trifluoromethyl-pheny)-thiazol-5-ylmethylsulfanyl]-3-oxo-3H-benzo[d]isoxazo-2-yl-acetic-acid] registered a melting point of 245 to 247 °C. Turning to `Cc1nc(-c2ccc(C(F)(F)F)cc2)sc1CSc1ccc2c(c1)C=C(C(=O)O)CO2` [Example 16, 6-[4-methyl-2-(4-trifluoromethyl-pheny)-thiazol-5-ylmethylsulfanyl]-2H-chromene-3-carboxylic acid], the EC50 in series [1] was 2.21 µM.

As for `COc1cc2c(cc1SCc1sc(-c3ccc(C(F)(F)F)cc3)nc1C)CCC2CC(=O)O` (stereo not shown) [Example 19, {6-Methoxy-5-[4-methyl-2-(4-trifluoromethyl-phenyl)-thiazol-5-ylmethylsulfanyl]-indan-1-yl}-acetic acid], the EC50 in series [1] stood at 0.113 µM; in series [2], 0.042 µM. With `Cc1nc(-c2ccc(C(F)(F)F)cc2)sc1CSc1ccc2c(c1)CCC(=O)N2CC(=O)O` [Example 12], the EC50 in series [1] was 0.896 µM.

In the case of `Cc1nc(-c2ccc(C(F)(F)F)cc2)sc1CSc1ccc2c(c1)CC(C(=O)O)CO2` (stereo not shown) [Example 17, 6-[4-methyl-2-(4-trifluoromethyl-pheny)-thiazol-5-ylmethylsulfanyl]-chroman-3-carboxylic acid], the melting point was in the range of 139 to 140 °C. Besides, in series [1], the EC50 came out at 2.13 µM. For the same compound, the EC50 in series [2] came to 2.19 µM.

Turning to `Cc1nc(-c2ccc(C(F)(F)F)cc2)sc1CSc1ccc2c(c1)CC(C(=O)O)C2` (stereo not shown) [Example 1, 5-[4-methyl-2-(4-trifluoromethyl-phenyl)-thiazol-5-ylmethylsulfanyl]-indan-2-carboxylic acid], the EC50 in series [1] stood at 0.178 µM; in series [2], 0.384 µM.

On to `COc1cc2c(cc1SCc1sc(-c3ccc(C(F)(F)F)cc3)nc1C)CCC(CC(=O)O)C2` (stereo not shown) [Example 13, {7-Methoxy-6-[4-methyl-2-(4-trifluoromethyl-phenyl)-thiazol-5-ylmethylsulfanyl]-1,2,3,4-tetrahydro-naphthalen-2-yl}-acetic acid], for which the values for the EC50 in series [1] and in series [2] were 0.0241 µM and 1.19 µM, respectively. In the case of `Cc1cc2c(cc1SCc1sc(-c3ccc(C(F)(F)F)cc3)nc1C)CCC(CC(=O)O)O2` (stereo not shown) [Example 15, 7-Methyl-6-[4-methyl-2-(4-trifluoromethyl-pheny)-thiazol-5-ylmethylsulfanyl]-chroman-2-yl-acetic acid], the EC50 in series [1] was 0.252 µM; in series [2] it was 1.3 µM. Regarding `Cc1nc(-c2ccc(C(F)(F)F)cc2)sc1CSc1ccc2c(c1)CC(CC(=O)O)CO2` (stereo not shown) [Example 18, 6-[4-methyl-2-(4-trifluoromethyl-pheny)-thiazol-5-ylmethylsulfanyl]-chroman-3-yl-acetic acid], the melting point lay in the range of 149 to 149.5 °C. The EC50 in series [1] came out at 0.394 µM. Moreover, the EC50 in series [2] was determined as 1000 µM.

Source of the values: US7109222B2, “Compounds that modulate PPAR activity and methods of preparation” (Warner-Lambert Company, LLC, priority 2002, dated 2006).
